Test results as given in the supplement of paper PMC10307832.

What was measured:
Experiment in all cases: relative viability (nuclei count vs DMSO), 5 days (fraction); higher = more cells survive
BEN = test system: BEN
Summary of the method: (§1)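 One day after seeding in 1536-well plates, lung cancer cell lines were dosed by pin tool. Dosing was either single-drug or a fixed anchor-drug dose plus five library-drug doses (not always all listed) in √10 steps. After 5 days, nuclei were stained in one fix-and-stain step and counted on 4× images, and relative viability is the nuclei count of treated wells over that of vehicle wells, given as the median of duplicate plates.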

CAL-12T = test system: CAL-12T
Summary of the method: as §1

EKVX = test system: EKVX
Summary of the method: as §1

HCC-366 = test system: HCC-366
Summary of the method: as §1

HCC-44 = test system: HCC-44
Summary of the method: as §1

LOU-NH91 = test system: LOU-NH91
Summary of the method: as §1

LU99A = test system: LU99A
Summary of the method: as §1

NCI-H1355 = test system: NCI-H1355
Summary of the method: as §1

NCI-H1395 = test system: NCI-H1395
Summary of the method: as §1

NCI-H1437 = test system: NCI-H1437
Summary of the method: as §1

NCI-H1650 = test system: NCI-H1650
Summary of the method: as §1

NCI-H1651 = test system: NCI-H1651
Summary of the method: as §1

NCI-H1734 = test system: NCI-H1734
Summary of the method: as §1

NCI-H1755 = test system: NCI-H1755
Summary of the method: as §1

NCI-H1975 = test system: NCI-H1975
Summary of the method: as §1

NCI-H2023 = test system: NCI-H2023
Summary of the method: as §1

NCI-H2085 = test system: NCI-H2085
Summary of the method: as §1

NCI-H2342 = test system: NCI-H2342
Summary of the method: as §1

NCI-H358 = test system: NCI-H358
Summary of the method: as §1

NCI-H441 = test system: NCI-H441
Summary of the method: as §1

NCI-H460 = test system: NCI-H460
Summary of the method: as §1

NCI-H838 = test system: NCI-H838
Summary of the method: as §1

NC(=O)Nc1cc(-c2cccc(F)c2)sc1C(=O)N[C@H]1CCCNC1 [AZD7762] + Cc1cc(Nc2cc(N3CCN(C)CC3)nc(Sc3ccc(NC(=O)C4CC4)cc3)n2)n[nH]1 [Tozasertib] (partner 0.1 µM)
relative viability (BEN; first compound 0.01 µM): 0.521
relative viability (BEN; first compound 0.03162 µM): 0.465
relative viability (BEN; first compound 0.1 µM): 0.539
relative viability (BEN; first compound 0.3162 µM): 0.507
relative viability (BEN; first compound 1 µM): 0.486
relative viability (CAL-12T; first compound 0.01 µM): 0.402
relative viability (CAL-12T; first compound 0.03162 µM): 0.332
relative viability (CAL-12T; first compound 0.1 µM): 0.353
relative viability (CAL-12T; first compound 0.3162 µM): 0.168
relative viability (CAL-12T; first compound 1 µM): 0.0999
relative viability (EKVX; first compound 0.01 µM): 0.393
relative viability (EKVX; first compound 0.03162 µM): 0.353
relative viability (EKVX; first compound 0.1 µM): 0.414
relative viability (EKVX; first compound 0.3162 µM): 0.394
relative viability (EKVX; first compound 1 µM): 0.255
relative viability (HCC-366; first compound 0.01 µM): 0.144
relative viability (HCC-366; first compound 0.03162 µM): 0.164
relative viability (HCC-366; first compound 0.1 µM): 0.125
relative viability (HCC-366; first compound 0.3162 µM): 0.119
relative viability (HCC-366; first compound 1 µM): 0.0666
relative viability (HCC-44; first compound 0.01 µM): 1.1
relative viability (HCC-44; first compound 0.03162 µM): 0.87
relative viability (HCC-44; first compound 0.1 µM): 0.714
relative viability (HCC-44; first compound 0.3162 µM): 0.822
relative viability (HCC-44; first compound 1 µM): 0.412
relative viability (LOU-NH91; first compound 0.01 µM): 0.741
relative viability (LOU-NH91; first compound 0.03162 µM): 0.701
relative viability (LOU-NH91; first compound 0.1 µM): 0.665
relative viability (LOU-NH91; first compound 0.3162 µM): 0.623
relative viability (LOU-NH91; first compound 1 µM): 0.429
relative viability (LU99A; first compound 0.01 µM): 0.318
relative viability (LU99A; first compound 0.03162 µM): 0.279
relative viability (LU99A; first compound 0.1 µM): 0.341
relative viability (LU99A; first compound 0.3162 µM): 0.281
relative viability (LU99A; first compound 1 µM): 0.218
relative viability (NCI-H1355; first compound 0.01 µM): 0.621
relative viability (NCI-H1355; first compound 0.03162 µM): 0.693
relative viability (NCI-H1355; first compound 0.1 µM): 0.566
relative viability (NCI-H1355; first compound 0.3162 µM): 0.666
relative viability (NCI-H1355; first compound 1 µM): 0.532
relative viability (NCI-H1395; first compound 0.01 µM): 0.771
relative viability (NCI-H1395; first compound 0.03162 µM): 0.851
relative viability (NCI-H1395; first compound 0.1 µM): 0.742
relative viability (NCI-H1395; first compound 0.3162 µM): 0.673
relative viability (NCI-H1395; first compound 1 µM): 0.386
relative viability (NCI-H1437; first compound 0.01 µM): 0.408
relative viability (NCI-H1437; first compound 0.03162 µM): 0.41
relative viability (NCI-H1437; first compound 0.1 µM): 0.439
relative viability (NCI-H1437; first compound 0.3162 µM): 0.372
relative viability (NCI-H1437; first compound 1 µM): 0.366
relative viability (NCI-H1650; first compound 0.01 µM): 0.482
relative viability (NCI-H1650; first compound 0.03162 µM): 0.467
relative viability (NCI-H1650; first compound 0.1 µM): 0.424
relative viability (NCI-H1650; first compound 0.3162 µM): 0.207
relative viability (NCI-H1650; first compound 1 µM): 0.118
relative viability (NCI-H1651; first compound 0.01 µM): 0.788
relative viability (NCI-H1651; first compound 0.03162 µM): 0.769
relative viability (NCI-H1651; first compound 0.1 µM): 0.74
relative viability (NCI-H1651; first compound 0.3162 µM): 0.395
relative viability (NCI-H1651; first compound 1 µM): 0.191
relative viability (NCI-H1734; first compound 0.01 µM): 0.263
relative viability (NCI-H1734; first compound 0.03162 µM): 0.25
relative viability (NCI-H1734; first compound 0.1 µM): 0.234
relative viability (NCI-H1734; first compound 0.3162 µM): 0.22
relative viability (NCI-H1734; first compound 1 µM): 0.199
relative viability (NCI-H1755; first compound 0.01 µM): 0.767
relative viability (NCI-H1755; first compound 0.03162 µM): 0.572
relative viability (NCI-H1755; first compound 0.1 µM): 0.687
relative viability (NCI-H1755; first compound 0.3162 µM): 0.539
relative viability (NCI-H1755; first compound 1 µM): 0.421
relative viability (NCI-H1975; first compound 0.01 µM): 0.762
relative viability (NCI-H1975; first compound 0.03162 µM): 0.721
relative viability (NCI-H1975; first compound 0.1 µM): 0.589
relative viability (NCI-H1975; first compound 0.3162 µM): 0.469
relative viability (NCI-H1975; first compound 1 µM): 0.367
relative viability (NCI-H2023; first compound 0.01 µM): 0.374
relative viability (NCI-H2023; first compound 0.03162 µM): 0.307
relative viability (NCI-H2023; first compound 0.1 µM): 0.227
relative viability (NCI-H2023; first compound 0.3162 µM): 0.105
relative viability (NCI-H2023; first compound 1 µM): 0.0751
relative viability (NCI-H2085; first compound 0.01 µM): 0.875
relative viability (NCI-H2085; first compound 0.03162 µM): 0.769
relative viability (NCI-H2085; first compound 0.1 µM): 0.807
relative viability (NCI-H2085; first compound 0.3162 µM): 0.729
relative viability (NCI-H2085; first compound 1 µM): 0.713
relative viability (NCI-H2342; first compound 0.01 µM): 0.489
relative viability (NCI-H2342; first compound 0.03162 µM): 0.501
relative viability (NCI-H2342; first compound 0.1 µM): 0.502
relative viability (NCI-H2342; first compound 0.3162 µM): 0.455
relative viability (NCI-H2342; first compound 1 µM): 0.487
relative viability (NCI-H358; first compound 0.01 µM): 0.0979
relative viability (NCI-H358; first compound 0.03162 µM): 0.088
relative viability (NCI-H358; first compound 0.1 µM): 0.109
relative viability (NCI-H358; first compound 0.3162 µM): 0.0755
relative viability (NCI-H358; first compound 1 µM): 0.0734
relative viability (NCI-H441; first compound 0.01 µM): 0.801
relative viability (NCI-H441; first compound 0.03162 µM): 0.907
relative viability (NCI-H441; first compound 0.1 µM): 0.908
relative viability (NCI-H441; first compound 0.3162 µM): 0.925
relative viability (NCI-H441; first compound 1 µM): 0.587
relative viability (NCI-H460; first compound 0.01 µM): 0.506
relative viability (NCI-H460; first compound 0.03162 µM): 0.394
relative viability (NCI-H460; first compound 0.1 µM): 0.444
relative viability (NCI-H460; first compound 0.3162 µM): 0.357
relative viability (NCI-H460; first compound 1 µM): 0.031
relative viability (NCI-H838; first compound 0.01 µM): 0.269
relative viability (NCI-H838; first compound 0.03162 µM): 0.299
relative viability (NCI-H838; first compound 0.1 µM): 0.244
relative viability (NCI-H838; first compound 0.3162 µM): 0.187
relative viability (NCI-H838; first compound 1 µM): 0.128
